Experimental data taken from publication PMC8125951, “Exploring the 2′-Hydroxy-Chalcone Framework for the Development of Dual Antioxidant and Soybean Lipoxygenase Inhibitory Agents” (Molecules, 2021).
pIC50: −log10 of the molar value. Where “and” joins values, the source holds several entries; their conditions need not be identical. Identical values can stand only once. Like-named read-outs stand apart in the source and are kept apart here.

Tests used:
[1] = Interaction with the stable free radical DPPH (reducing activity)
Method: The first assay refers to the interaction of the compounds with the stable free radical DPPH and it is a fast, simple, cost-effective, and widely used method, where the DPPH radical reacts directly with the antioxidant and is decolorized. This interaction indicates their radical scavenging ability in an iron-free system. The scavenging effect of the synthesized analogues on the DPPH radical was evaluated according to the methods of Hadjipavlou et al..
To an ethanolic solution of DPPH (100 μM) in absolute ethanol, an equal volume of the compounds dissolved in DMSO was added (100 μM). […]

[2] = ABTS radical cation decolorization assay; details: 100 μM
Method: The ABTS radical cation decolorization assay was used as another antioxidant activity estimation protocol (Table 2). Oxidation of ABTS with potassium persulfate generates directly the radical with no involvement of an intermediate radical, which is then reduced upon adding electron-donating antioxidants.
In order to produce the ABTS radical cation (ABTS^+·), ABTS stock solution in water (7 mM) was mixed with potassium persulfate (2.45 mM) and left in the dark at room temperature for 12–16 h before use. Our published experimental technique was used (1). The results are recorded after 1 min of the mixing solutions at 734 nm. The results were compared to the appropriate standard inhibitor Trolox.

[3] = Competition of the tested compounds with DMSO for hydroxyl radicals; details: 100 μM
Description: Among the reactive oxygen species (ROS), the hydroxyl (^•OH) free radical is possibly the most toxic, reacting with several biological important molecules such as DNA, lipids, or carbohydrates. Polyunsaturated fatty acids are particularly vulnerable by free radicals. Iron released from damaged cells is more likely to be readily available to catalyze the generation of ^•OH radicals. Thus, we tried to test the ability of our compounds to scavenge hydroxyl radicals determining the competition of selected chalcones and aurones with DMSO for hydroxyl radicals. Hydroxyl radicals were generated using the Fe^3+/ascorbic acid system and expressed as a percentage inhibition of formaldehyde production in the presence of each compound at 100 μM.
The hydroxyl radicals generated by the Fe^3+ / ascorbic acid system, were detected by the determination of formaldehyde produced from the oxidation of DMSO (Table 2). A negative control using the same % DMSO was used. Trolox was used as reference compound [75].

soybean lipoxygenase = biological target: T1, soybean lipoxygenase (Glycine max, UniProt P08170); experiment: Soybean LOX inhibition study in vitro; type: biochemical; details: for inhibition at 100 µM: read-out: Inhibition of Soybean Lipoxygenase 100 μM (%), at 100 μM
T1 sequence (P08170 1-839): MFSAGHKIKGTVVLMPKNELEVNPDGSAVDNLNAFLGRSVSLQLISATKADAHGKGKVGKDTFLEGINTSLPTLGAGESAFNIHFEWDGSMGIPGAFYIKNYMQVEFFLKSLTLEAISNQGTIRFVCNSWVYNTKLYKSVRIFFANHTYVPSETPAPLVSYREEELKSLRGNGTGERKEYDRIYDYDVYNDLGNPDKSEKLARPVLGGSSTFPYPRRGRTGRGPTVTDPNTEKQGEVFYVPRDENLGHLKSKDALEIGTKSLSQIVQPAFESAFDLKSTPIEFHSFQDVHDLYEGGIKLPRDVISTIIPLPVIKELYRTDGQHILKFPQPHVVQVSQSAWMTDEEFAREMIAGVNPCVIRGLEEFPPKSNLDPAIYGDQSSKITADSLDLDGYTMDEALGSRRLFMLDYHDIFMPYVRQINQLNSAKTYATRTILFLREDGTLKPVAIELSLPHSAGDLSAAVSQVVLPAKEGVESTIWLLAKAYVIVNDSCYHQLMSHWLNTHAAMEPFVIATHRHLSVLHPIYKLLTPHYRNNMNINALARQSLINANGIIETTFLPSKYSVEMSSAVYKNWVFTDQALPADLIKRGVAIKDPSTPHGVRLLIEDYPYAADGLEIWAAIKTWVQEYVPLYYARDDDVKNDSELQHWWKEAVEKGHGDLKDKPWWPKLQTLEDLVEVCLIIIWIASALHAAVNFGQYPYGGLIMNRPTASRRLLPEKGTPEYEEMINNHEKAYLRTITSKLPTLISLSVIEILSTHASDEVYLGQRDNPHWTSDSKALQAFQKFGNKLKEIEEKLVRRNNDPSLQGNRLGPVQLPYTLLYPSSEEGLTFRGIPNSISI
Method: Furthermore, as an indication of their anti-inflammatory activity, all the molecules were tested as inhibitors of soybean lipoxygenase (LOX). The enzyme lipoxygenase catalyzes the first two steps in the metabolism of arachidonic acid, which is cleaved from membrane phospholipids to leukotrienes (LTB4). LTB4 generation is considered to be important in the pathogenesis of neutrophil-mediated inflammatory diseases. For this study, the UV absorbance-based soybean LOX assay was used, which is a plant enzyme with satisfactory homology with the human 5-LOX [61, 62, 63, 64, 65, 66].
The tested compounds dissolved in DMSO were incubated at room temperature with sodium linoleate (0.1 mL) and 0.2 mL of enzyme solution ([…] in saline) in Tris buffer pH 9.

[4] = Inhibition of linoleic acid lipid peroxidation induced by AAPH
Description: The second technique is based on the ability of the compounds to inhibit lipid peroxidation of linoleic acid induced by 2,2′-Azobis(2-amidinopropane) dihydrochloride (AAPH) radical (Table 2). AAPH-induced linoleic acid oxidation has been developed as a quick and reliable method for measuring the antioxidant activity. The thermal free radical producer (AAPH) generates free radicals in the solution which cause the oxidation of linoleic acid, and the method is a measure of how effective antioxidants protect against lipid peroxidation in vitro. Oxidation of linoleic acid by AAPH is followed by UV spectrophotometry in a highly diluted sample [61].
2,2′-Azobis(2-amidinopropane) dihydrochloride (AAPH) was used as a free radical initiator. Ten microliters of the 16 mM linoleic acid sodium salt solution was added to the UV cuvette containing 0.93 mL of 0.05 M phosphate buffer, pH 7.4 prethermostated at 37 °C. The oxidation reaction was initiated at 37 °C under air by the addition of 50 μL of 40 mM AAPH solution. Oxidation was carried out in the presence of the synthesized compounds (10 μL, from a stock solution of 10 mM in DMSO). In the assay without antioxidant, lipid oxidation was measured in the presence of the same level of DMSO.

[5] = read-out: Inhibition of Soybean Lipoxygenase IC50

Row | SMILES | Interaction with the Free Radical DPPH (%) ([1]; 100 μM, 20 min) | Interaction with the Free Radical DPPH (%) ([1]; 100 μM, 60 min) | Inhibition of Lipid Peroxidation of Linoleic Acid Induced by AAPH Radical (%) ([4]; 100 μM) | pIC50 (soybean lipoxygenase; [5]) | also measured
1 | O=C1/C(=C/c2cc(O)c(O)cc2O)Oc2ccccc21 [Compound 7b, 2′,4′,5′-Trihydroxy-Aurone] | 100% | 100% | – | – | Interaction with the Free Radical DPPH (%) ([1]; 0 min): 98.2%; Interaction with the Free Radical DPPH (%) ([1]; 3 min): 99.3%; Interaction with the Free Radical DPPH (%) ([1]; 6 min): 99.5%; Interaction with the Free Radical DPPH (%) ([1]; 9 min): 99.8%; ABTS+· % [2]: no; HO· (%) competition with DMSO for hydroxyl radicals [3]: 77%; Inhibition of Soybean Lipoxygenase 100 μM (%) (soybean lipoxygenase; at 100 μM): no
2 | O=C(/C=C/c1ccccc1)c1ccccc1O [Compound 3l, 2′-hydroxy-chalcone] | no | no | 87.6% | – | Inhibition of Lipid Peroxidation of Linoleic Acid Induced by AAPH Radical (%) ([4]; 0 min): 87.6%; Inhibition of Lipid Peroxidation of Linoleic Acid Induced by AAPH Radical (%) ([4]; 3 min): 93.2%; Inhibition of Lipid Peroxidation of Linoleic Acid Induced by AAPH Radical (%) ([4]; 6 min): 95.7%; Inhibition of Lipid Peroxidation of Linoleic Acid Induced by AAPH Radical (%) ([4]; 9 min): 94.3%; pIC50 (soybean lipoxygenase): 4.00
3 | O=C(O)c1ccc(/C=C/C(=O)c2cc(Cl)ccc2O)cc1 [Compound 3k, 4-carboxy-5′-chloro-2′-hydroxy-chalcone] | no | no | no | 4.17 | –
4 | COCOc1ccc(/C=C/C(=O)c2cc(Br)cc(Br)c2O)cc1OCOC [Compound 3i, 3′,5′-bromo-3,4-dimethoxymethoxy-2′-hydroxy-chalcone] | totally inactive and no | no | 93.0% | 4.17 | Inhibition of Lipid Peroxidation of Linoleic Acid Induced by AAPH Radical (%) ([4]; 0 min): 95.6%; Inhibition of Lipid Peroxidation of Linoleic Acid Induced by AAPH Radical (%) ([4]; 3 min): 98.6%; Inhibition of Lipid Peroxidation of Linoleic Acid Induced by AAPH Radical (%) ([4]; 6 min): 96.9%; Inhibition of Lipid Peroxidation of Linoleic Acid Induced by AAPH Radical (%) ([4]; 9 min): 99.2%
5 | COc1cc(OC)c(OC)cc1/C=C/C(=O)c1ccccc1O [Compound 3b, 2′-hydroxy-2,4,5-trimethoxy-chalcone] | no | no | 67.3% | 4.12 | HO· (%) competition with DMSO for hydroxyl radicals [3]: no
6 | C[C@H](Cc1ccc(O)c(O)c1)[C@@H](C)Cc1ccc(O)c(O)c1 [NDGA, Nordihydroguaiaretic acid, reference compound] | 87.0% | 93.0% | – | – | –
7 | O=C(O)c1ccc(/C=C/C(=O)c2ccccc2O)cc1 [Compound 3j, 4-carboxy-2′-hydroxy-chalcone] | no | no | no | 4.00 | –
8 | Cc1c(C)c2c(c(C)c1O)CCC(C)(C(=O)O)O2 (stereo not shown) [Trolox, reference compound] | 93.0% | 93.6% | 92.0% | – | ABTS+· % [2]: 93%; HO· (%) competition with DMSO for hydroxyl radicals [3]: 82%
9 | COC(=O)c1ccc(/C=C/C(=O)c2ccccc2O)cc1 [Compound 5, 4-Methoxycarbonyl-2′-Hydroxy-Chalcone] | no | no | 100% | 4.00 | Inhibition of Lipid Peroxidation of Linoleic Acid Induced by AAPH Radical (%) ([4]; 0 min): 95.4%; Inhibition of Lipid Peroxidation of Linoleic Acid Induced by AAPH Radical (%) ([4]; 3 min): 96.9%; Inhibition of Lipid Peroxidation of Linoleic Acid Induced by AAPH Radical (%) ([4]; 6 min): 92.5%; Inhibition of Lipid Peroxidation of Linoleic Acid Induced by AAPH Radical (%) ([4]; 9 min): 98.9%
10 | COCOc1ccc(/C=C/C(=O)c2cc(Br)ccc2O)cc1OCOC [Compound 3h, 5′-bromo-3,4-dimethoxymethoxy-2′-hydroxy-chalcone] | – | 6.0% | 65.6% | 4.26 | –
11 | COc1ccc(/C=C/C(=O)c2cc(Br)ccc2O)cc1OC [Compound 3f, 5′-bromo-3,4-dimethoxy-2′-hydroxy-chalcone] | totally inactive and no | no | inactive and no | – | inhibition at 100 µM (soybean lipoxygenase): 38%
12 | COCOc1ccc(C(=O)/C=C/c2cc(OC)c(OC)cc2OC)c(O)c1 [Compound 3c, 2′-hydroxy-4′-methoxymethoxy-2,4,5-trimethoxy-chalcone] | no | 2.3% | 39.4% | 4.35 | –
13 | COc1ccc(/C=C/C(=O)c2cc(Br)cc(Br)c2O)cc1OC [Compound 3g, 3′,5′-dibromo-3,4-dimetoxy-2′-hydroxy-chalcone] | totally inactive and no | no | inactive and 31.0% | 4.16 | –
14 | COc1ccc(/C=C/C(=O)c2cc(Cl)ccc2O)cc1OC [Compound 3d, 5′-chloro-3,4-dimethoxy-2′-hydroxy-chalcone] | no | no | no | – | inhibition at 100 µM (soybean lipoxygenase): 32%
15 | COc1cccc(/C=C/C(=O)c2cc(Cl)ccc2O)c1OC [Compound 3e, 5′-chloro-2,3-dimethoxy-2′-hydroxy-chalcone] | no | no | 20.0% | 4.00 | –
